Consider 1 molecule from US20050153967A1, “Pharmaceutical compositions comprising 2-(4-ethoxy-phenyl)-3-(4-methanesulfonyl-phenyl)-pyrazolo'1,5-bipyridazine in nanoparticulate form” (priority 2002, published 2005).

Series [1] can be described thus: Dissolution testing (in vitro prediction of bioavailability). The series is classed as physicochemical. From the text:
Dissolution testing is a well established technique for obtaining a correlation between in vitro and in vivo data in relation to compound bioavailability. […] As a result attempts were made to improve the bioavailability of compound (I). WO01/41760 (Pharmacia Corporation) discloses that the bioavailability of selective COX-2 inhibitory drugs of low water solubility may be enhanced by reducing the drug particle size, such that a substantial proportion are smaller than 1 μm.

For series [2], the target named is T1, cyclooxygenase-2 (COX-2) (Homo sapiens, UniProt P35354).
T1 sequence (P35354 18-604): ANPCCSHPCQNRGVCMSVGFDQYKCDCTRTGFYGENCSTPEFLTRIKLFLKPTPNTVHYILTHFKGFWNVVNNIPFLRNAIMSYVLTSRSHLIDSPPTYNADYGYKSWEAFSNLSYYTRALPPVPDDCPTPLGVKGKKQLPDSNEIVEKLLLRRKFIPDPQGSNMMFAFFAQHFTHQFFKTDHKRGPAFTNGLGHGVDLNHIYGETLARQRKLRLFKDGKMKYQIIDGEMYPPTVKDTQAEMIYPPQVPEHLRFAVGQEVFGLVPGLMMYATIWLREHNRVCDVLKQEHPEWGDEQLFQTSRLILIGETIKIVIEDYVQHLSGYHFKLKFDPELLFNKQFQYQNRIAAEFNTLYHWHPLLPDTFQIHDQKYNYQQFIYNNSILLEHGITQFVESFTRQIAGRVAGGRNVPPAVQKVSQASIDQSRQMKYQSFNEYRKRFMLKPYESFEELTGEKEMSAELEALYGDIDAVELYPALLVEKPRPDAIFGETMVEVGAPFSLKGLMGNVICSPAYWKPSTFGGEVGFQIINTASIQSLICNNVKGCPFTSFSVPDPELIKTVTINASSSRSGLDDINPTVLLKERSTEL
To be noted: cited from earlier work.

As to `CCOc1ccc(-c2nn3ncccc3c2-c2ccc(S(C)(=O)=O)cc2)cc1` [compound (I), 2-(4-ethoxy-phenyl)-3-(4-methanesulfonyl-phenyl)-pyrazolo[1,5-b]pyridazine], the “dissolution, indicated bioavailability” value in series [1] (co-formulation with HPMC-AS in an amorphous dispersion) was “enhanced”. Further, the “dissolution, predicted bioavailability” value in series [1] (compound (I) in micronised form, preliminary dissolution experiments) is given as “poorly bioavailable”. In series [1] (pharmaceutical composition with compound (I) in nanoparticulate form), the dissolution profile entry was “poor dissolution profile”. For the same molecule, in series [2], the “inhibition of cyclooxygenase-2 (COX-2)” value is “potent and selective inhibitor”.
